Among the test systems are U251 CNS; SK-MEL-2 melanoma; OVCAR-3 ovarian; SN12C renal; UACC-62 melanoma; LOX IMVI melanoma; A549 NSCLC; CAKI-1 renal; UO-31 renal; T-47D breast.
Holding throughout (assay): NCI tumour cell line growth inhibition, 48 h

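A five-concentration, 48-hour dose response in 96-well plates underlies each endpoint, interpolated linearly between surrounding concentrations. TGI denotes the concentration required for complete inhibition of growth.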 Where a SMILES comes first, the peptide text is derived from it.

Consider `CC(=O)C(CN(C)C)C(c1ccccc1)c1c(O)c2ccccc2oc1=O` (stereo not drawn), for which the TGI with U251 CNS, in the assay with SK-MEL-2 melanoma, in the assay on OVCAR-3 ovarian, in the assay on SN12C renal, in the assay with UACC-62 melanoma and in the assay with LOX IMVI melanoma was above 100 µM each time. Besides, the TGI in the assay with A549 NSCLC and with CAKI-1 renal was above 100 µM each time.

Regarding `Cc1c(N/C=C(\C#N)C(=O)c2ccc(Cl)cc2)c(=O)n(-c2ccccc2)n1C`, the TGI in the assay on U251 CNS, in the assay with SK-MEL-2 melanoma, in the assay with OVCAR-3 ovarian, in the assay with SN12C renal, in the assay on UACC-62 melanoma and in the assay on LOX IMVI melanoma was above 100 µM in each case. For the same compound, the TGI with A549 NSCLC, with CAKI-1 renal and in the assay on UO-31 renal was above 100 µM throughout.

On to `CC(C)(C)OC(=O)c1ccc(NCC2=CC(=O)C=CC2=O)cc1`, for which the TGI in the assay with U251 CNS is 27.1 µM; in the assay with SK-MEL-2 melanoma it was 31.8 µM; with OVCAR-3 ovarian it was 16.1 µM; with SN12C renal, 23.8 µM; in the assay with UACC-62 melanoma, 26 µM; with LOX IMVI melanoma it was 22.6 µM. The TGI in the assay on A549 NSCLC came to 40.1 µM; in the assay on CAKI-1 renal, 3.39 µM; with UO-31 renal, 19.7 µM.

On to `CO[C@@H]1C[C@H]2N3CC[C@@]2(c2cc4c(cc2C3)OCO4)[C@H]2O[C@@H]12`, for which the TGI in the assay with U251 CNS, with SK-MEL-2 melanoma, in the assay on OVCAR-3 ovarian, in the assay on SN12C renal, with UACC-62 melanoma and with LOX IMVI melanoma was above 100 µM each time. Further, the TGI in the assay on A549 NSCLC, with CAKI-1 renal and with UO-31 renal was above 100 µM throughout.

With `O=S(=O)(c1ccccc1)n1cc(C[P+](c2ccccc2)(c2ccccc2)c2ccccc2)c2ccccc21`, the TGI turned out to be 15.8 µM with U251 CNS; 5.87 µM in the assay on SK-MEL-2 melanoma; 13.5 µM in the assay with OVCAR-3 ovarian; 19.8 µM in the assay with SN12C renal; 17.8 µM with UACC-62 melanoma; 13.6 µM in the assay on LOX IMVI melanoma. Besides, the TGI amounted to 24.8 µM in the assay on A549 NSCLC, 26.9 µM in the assay on CAKI-1 renal and 13.1 µM with UO-31 renal.

As to `CN(C)C=NCCN1CCOCC1`, the TGI in the assay with U251 CNS, with SK-MEL-2 melanoma, in the assay on OVCAR-3 ovarian, in the assay on SN12C renal, in the assay on UACC-62 melanoma and with LOX IMVI melanoma was above 100 µM throughout. Further, the TGI with A549 NSCLC, with UO-31 renal and with T-47D breast was above 100 µM throughout.

For the compound `NCCCCC(=O)c1cccnc1`, the TGI with U251 CNS, in the assay on SK-MEL-2 melanoma, with OVCAR-3 ovarian, with UACC-62 melanoma, with LOX IMVI melanoma and in the assay with A549 NSCLC was above 100 µM throughout. The TGI in the assay on CAKI-1 renal and in the assay with UO-31 renal was above 100 µM in each case.

On to `c1cncc(O[Si](Oc2cccnc2)(Oc2cccnc2)Oc2cccnc2)c1`, for which the TGI in the assay with U251 CNS, in the assay with SK-MEL-2 melanoma, in the assay with OVCAR-3 ovarian, with SN12C renal, in the assay with UACC-62 melanoma and in the assay with LOX IMVI melanoma was above 100 µM each time. For the same compound, the TGI with A549 NSCLC, in the assay on CAKI-1 renal and with UO-31 renal was above 100 µM in each case.

On to `O=C(CN1CCOCC1)c1ccc2c(c1)oc(=O)n2CCN1CCCC1`, for which the TGI with U251 CNS, in the assay on SK-MEL-2 melanoma, in the assay on OVCAR-3 ovarian, in the assay with SN12C renal, in the assay with UACC-62 melanoma and in the assay on LOX IMVI melanoma was above 100 µM in each case. Further, the TGI in the assay on CAKI-1 renal is above 100 µM.

Regarding `CC(C)CC(NC(=O)C(Cc1ccccc1)NC(=O)C(Cc1c[nH]c2ccccc12)NC(=O)CNC(=O)C(N)Cc1ccc(O)cc1)C(=O)O` (stereo not drawn) (H-YGWFL-OH; configuration not given here), the TGI in the assay on U251 CNS is above 100 µM; in the assay with SK-MEL-2 melanoma it was above 100 µM; in the assay on OVCAR-3 ovarian, 57 µM; in the assay with SN12C renal, above 100 µM; in the assay on UACC-62 melanoma, above 100 µM; with A549 NSCLC, above 100 µM. The figures for the TGI in the assay with CAKI-1 renal, with UO-31 renal and in the assay with T-47D breast were above 100 µM, above 100 µM and 72.9 µM, respectively.

Consider `SCc1ccc(CS)s1`, for which the TGI in the assay with U251 CNS, with OVCAR-3 ovarian, in the assay on SN12C renal, in the assay with UACC-62 melanoma, with LOX IMVI melanoma and in the assay with A549 NSCLC was above 100 µM in each case. Further, the TGI with UO-31 renal and in the assay with T-47D breast was above 100 µM throughout.

On to `O=C(O)C1(Cc2ccc3c(c2)CCC3)Cc2ccccc2C1`, for which the TGI in the assay with U251 CNS, in the assay with SK-MEL-2 melanoma, in the assay on OVCAR-3 ovarian, in the assay with SN12C renal, in the assay with UACC-62 melanoma and with LOX IMVI melanoma was above 100 µM in each case. Further, the TGI in the assay with A549 NSCLC, with UO-31 renal and with T-47D breast was above 100 µM each time.

For the compound `C(=N\OCCc1ccccc1)/c1cccnc1`, the TGI with U251 CNS, in the assay on SK-MEL-2 melanoma, in the assay with OVCAR-3 ovarian, in the assay on SN12C renal, in the assay on UACC-62 melanoma and in the assay with A549 NSCLC was above 100 µM in each case. Also, the TGI in the assay with UO-31 renal and in the assay with T-47D breast was above 100 µM each time.

In the case of `C[C@@H]1C2=CC[C@@]3(C)C(CCC3[C@H](C)[C@H]3C[C@@]4(C)O[C@@](c5cccnc5)(O3)OC4(C)C)[C@@H]2C2OC2[C@@]12CCC(=O)O2` (stereo partly drawn), the TGI is above 100 µM with U251 CNS; 58.6 µM in the assay with SK-MEL-2 melanoma; 85.9 µM in the assay on OVCAR-3 ovarian; above 100 µM in the assay on SN12C renal; above 100 µM in the assay with UACC-62 melanoma; above 100 µM in the assay with LOX IMVI melanoma. The TGI in the assay with A549 NSCLC was above 100 µM; with CAKI-1 renal, 79.6 µM; in the assay with UO-31 renal, 97.1 µM.

Consider `Cc1cnc2c(c1)C(=O)C1=C(OC(C)(C)CC1O)C2=O` (stereo not drawn), for which the TGI with U251 CNS was 29.3 µM; in the assay with SK-MEL-2 melanoma, above 100 µM; in the assay with OVCAR-3 ovarian, 23.4 µM; in the assay on SN12C renal, 29.8 µM; with UACC-62 melanoma, 12.6 µM; with LOX IMVI melanoma, 25.8 µM. Further, the values for the TGI with A549 NSCLC and in the assay with UO-31 renal were 31.9 µM and 29.7 µM, respectively.
